Several values for one entry are separate records, joined by “and”; a condition that tells them apart may be missing. Identical values can stand only once. Counter-ions that a name gives are not always drawn. Like-named read-outs stand apart in the source and are kept apart here.
Legend:
[1] = Tissue or fluid to plasma ratios and blister fluid distribution after oral administration; type: in vivo, human; conditions: for Kp: oral, read-out: Mean Tissue or Fluid to Plasma Ratio
Source text: The following are mean tissue or fluid to plasma ratios of lomefloxacin following oral administration.
Equilibrium between the serum and blister fluid is achieved approximately two hours postdose, with a partition coefficient of 1.0 (blister fluid:serum). The concentration vs. time profiles in blister fluid following single dose administration are similar to those obtained at steady-state during a once daily dosing regimen.

[2] = tested on: gram-negative and gram-positive organisms; assay: Bactericidal activity in vitro, MBC relative to MIC; type: cell-based
[3] = tested on: bacterial enzyme DNA gyrase; assay: Interference with bacterial DNA gyrase; type: biochemical
[4] = tested on: Staphylococcus saprophyticus; assay: Activity in vitro and in clinical infections; type: cell-based
[5] = tested on: Citrobacter diversus; assay: Activity in vitro and in clinical infections; type: cell-based
[6] = tested on: Escherichia coli; assay: Activity in vitro and in clinical infections; type: cell-based
[7] = tested on: Haemophilus influenzae; assay: Activity in vitro and in clinical infections; type: cell-based
[8] = tested on: Moraxella (Branhamella) catarrhalis; assay: Activity in vitro and in clinical infections; type: cell-based
[9] = tested on: Proteus mirabills; assay: Activity in vitro and in clinical infections; type: cell-based
[10] = tested on: Pseudomonas aeruginosa; assay: Activity in vitro and in clinical infections; type: cell-based
[11] = tested on: patients; assay: Clinical trials, adverse events; type: in vivo, human
Source text: Photosensitivity and/or phototoxicity reactions have been reported in clinical trials of lomefloxacin HCl to varying degrees. […] These photosensitivity and/or phototoxicity reactions have also occurred in subjects exposed to shaded or diffuse light, including exposure through glass.
In clinical trials, most of the adverse events reported were mild to moderate in severity and transient in nature. During these clinical investigations, 2869 patients received MAXAQUIN®. In 2.6% of the patients, lomefloxacin was discontinued because of adverse events, primarily involving the gastrointestinal system (0.7%), skin (1.0%), or central nervous system (0.5%). The adverse clinical events with the highest incidence (≥1%) in patients, regardless of relationship to drug, were nausea (3.7%), headache (3.2%), photosensitivity (2.4%), dizziness (2.3%), and diarrhea (1.4%).

[12] = Example 1: general pharmacokinetics in volunteers; type: in vivo, human
Experimental: In 6 fasting healthy male volunteers, approximately 95% to 98% of a single oral dose of lomefloxacin HCl was absorbed. […] Mean plasma concentration increased proportionally between 100 and 400 mg as shown below.
In 6 healthy male volunteers administered 400 mg of lomefloxacin HCl on an empty stomach q.d. for 7 days, the following mean pharmacokinetic parameter values were obtained: [formula]
The elimination half-life in 8 subjects with normal renal function was approximately 8 hours. At 24 hours post dose, subjects with normal renal function receiving single doses of 200 or 400 mg lomefloxacin HCl had mean plasma lomefloxacin HCl concentrations of 0.10 and 0.24 μg/ml, respectively. Steady-state concentrations were achieved within 48 hours of initiating therapy with once-a-day dosing.
Approximately 65% of an orally administered dose of lomefloxacin HCl was excreted in the urine as unchanged drug in patients with normal renal function. Following a 400 mg dose of lomefloxacin HCl administered q.d. for 7 days, the mean urine concentration was in excess of 300 μg/ml 4 hours post dose. The mean urine concentration exceeded 35 μg/ml for at least 24 hours after dosing.
The urinary excretion of lomefloxacin HCl was virtually complete within 72 hours after cessation of dosing, with approximately 65% of the dose being recovered as parent drug and 9% as its glucuronide metabolite.

[13] = Pharmacokinetics in the geriatric population; type: in vivo, human
Source text: This slower elimination most likely reflects the decreased renal function normally observed in the geriatric population.

[14] = Pharmacokinetics in renally impaired patients; type: in vivo, human; conditions: single doses
[15] = tested on: skin of healthy volunteers; conditions: in vivo
Experimental: The number of skin patches with edema, or local swelling of the skin surface, were also counted. MEDs were measured separately for UVA and UVB radiation, and for UVA radiation alone. The baseline MED was defined in the manner described hereinabove. The 24 hour evaluation was allowed to be performed in the morning of Study Day 1. Severity of reactions causing edema and/or blisters were graded under the following grading system:
Severity was assessed by comparing the numbers of subjects with responses graded as 2 (edema) or 3 (blisters).

[16] = tested on: skin of healthy volunteers; conditions: in vivo; remark: listed apart in the source
Source text: The relationship between plasma concentration at time of irradiation and delayed MEDUVA was explored using regression analysis by testing the equality of the slopes of the regression of delayed MEDUVA on plasma concentration, obtaining estimates of the parameters of the regression line, and determining the correlation coefficient.

[17] = Example 5: lomefloxacin plasma concentrations; conditions: for concentration at 14 h: Hour 14, mean; for plasma concentration, Hour 86: 72 hours following last active dose
[18] = Physicochemical properties of lomefloxacin HCl
[19] = regardless of relationship to drug
[20] = human, plasma, mean, a.m. dosing
[21] = human, plasma, mean, p.m. dosing

With `CCn1cc(C(=O)O)c(=O)c2cc(F)c(N3CCNC(C)C3)c(F)c21` (racemic) [lomefloxacin HCl, monohydrochloride salt of (±)-1-ethyl-6,8-difluoro-1,4-dihydro-7-(3-methyl-1-piperazinyl)-4-oxo-3-quinolinecarboxylic acid] the Kp ([1]; Blister Fluid) was 1, the Kp ([1]; Bronchial mucosa) was 2.1 and the Kp ([1]; Bronchial secretions) was 0.6. The Kp ([1]; Prostatic tissue) was 2, the Kp ([1]; Sputum) was 1.3 and the Kp ([1]; Urine) was 140. The “terminal half-life in blister fluid versus serum” value ([1]; inflammatory exudate fluid of blisters) was “same terminal half-life”, the “time to equilibrium between serum and blister fluid” value ([1]; postdose) was “approximately two” and the “MBC relative to MIC” value ([2]; generally, except staphylococci) was at most 2 factor. For the same molecule, the antibacterial activity ([2]; in vitro) was “bactericidal agent with in vitro activity against a wide range of gram-negative and gram-positive organisms”, the “mechanism of bactericidal action” value [3] was “interference with the activity of the bacterial enzyme DNA gyrase” and the “activity against most strains” value [4] was “active against most strains”. The “activity against most strains” value [5] was “active against most strains”, the “activity against most strains” value [6] was “active against most strains” and the “activity against most strains” value [7] was “active against most strains”. The “activity against most strains” value [8] was “active against most strains”, the “activity against most strains” value [9] was “active against most strains” and the “activity against most strains” value [10] was “active against most strains”. For the same molecule, the “discontinued because of adverse events” value ([11]; 2869 patients) was 2.6%, the “discontinued because of adverse events, central nervous system” value ([11]; 2869 patients) was 0.5% and the “discontinued because of adverse events, gastrointestinal system” value ([11]; 2869 patients) was 0.7%. The “discontinued because of adverse events, skin” value ([11]; 2869 patients) was 1.0%, the incidence of photosensitivity ([11]; clinical trials) was 2.4% and the “photosensitivity and/or phototoxic reactions” value ([11]; patients exposed to sunlight or artificial ultraviolet light) was “Moderate to severe photosensitivity and/or phototoxic reactions have occurred”. The incidence of diarrhea [11, 19] was 1.4%, the incidence of dizziness [11, 19] was 2.3% and the incidence of headache [11, 19] was 3.2%. The incidence of nausea [11, 19] was 3.7%, the “glucuronide metabolite recovered in urine” value ([12]; human, in vivo) was 9% and the “time to steady-state concentrations” value ([12]; human, in vivo) was at most 48 h. The “time to virtually complete urinary excretion” value ([12]; human, in vivo) was at most 72 h, the CL renal ([12]; human, in vivo, po) was 145 mL/min and the Fa ([12]; human, in vivo, po) was 95 to 98%. The Tmax ([12]; human, in vivo, po) was 0.8 to 1.4 h, the half-life ([12]; human, in vivo, po) was about 8 h and the drug accumulation ([12]; single daily dosing, normal renal function) was “no drug accumulation”. The “increase of AUC” value ([13]; elderly vs younger subjects) was “approximately 33%”, the “reduction of plasma clearance” value ([13]; elderly vs younger subjects) was “approximately 25%” and the half-life ([13]; human, in vivo, 16 elderly volunteers, single 400 mg dose) was 8 h. For the same molecule, the Cmax ([13]; human, plasma, 16 elderly volunteers, single 400 mg dose, read-out: peak plasma concentration, mean) was 4200 ng/mL, the “drug absorption in the elderly” value ([13]; single 400 mg dose) was “unaffected in the elderly” and the “peak concentrations versus renal function” value [14] was “not affected by the degree of renal function”. The “severity of UVA+UVB radiation-induced photoreactions versus baseline” value [15] was “no change”, the “subjects with edema or blisters on the sites of radiation, UVA” value [15] was “sixty-nine” and the “reduction in Minimum Erythema Dose from baseline at high plasma concentration” value [16] was “marked reduction in Minimum Erythema Dose from baseline”. For the same molecule, the “reduction in Minimum Erythema Dose from baseline at low plasma concentration” value [16] was “no reduction in Minimum Erythema Dose from baseline”, the AUC [17, 20] was 47000 ng·h/mL and the AUC [17, 21] was 40000 ng·h/mL. It also gave a Cmax [17, 20] of 3000 ng/mL, a Cmax [17, 21] of 2900 ng/mL and a Tmax ([17]; human, plasma, Tmax, mean, a.m. dosing, sample hour scale) of 14.9 h. For the same molecule, the Tmax ([17]; human, plasma, Tmax, mean, p.m. dosing) was 2.9 h, the concentration at 2 h ([17]; human, plasma, plasma concentration, Hour 2, mean, mean, a.m. dosing, 12 hours prior to last active dose) was 1100 ng/mL and the concentration at 2 h ([17]; human, plasma, plasma concentration, Hour 2, mean, mean, p.m. dosing, 2 hours following last active dose) was 2900 ng/mL. For the same molecule, the concentration at 14 h ([17]; human, plasma, plasma concentration, mean, a.m. dosing, immediately prior to last active dose) was 300 ng/mL, the concentration at 14 h ([17]; human, plasma, plasma concentration, mean, p.m. dosing, 14 hours following last active dose) was 1000 ng/mL and the concentration at 2 h ([17]; human, plasma, plasma concentration, Hour 16, individual subjects, a.m. dosing, 2 hours following last active dose) was 2920 ng/mL. It also gave a concentration at 2 h ([17]; human, plasma, plasma concentration, Hour 16, mean, mean, a.m. dosing, 2 hours following last active dose) of 3100 ng/mL, a concentration at 16 h ([17]; human, plasma, plasma concentration, Hour 16, mean, mean, p.m. dosing, 16 hours following last active dose) of 800 ng/mL and a concentration at 5 h ([17]; human, plasma, plasma concentration, Hour 19, individual subjects, a.m. dosing, 5 hours following last active dose) of 1850 ng/mL. For the same molecule, the concentration at 5 h ([17]; human, plasma, plasma concentration, Hour 19, mean, mean, a.m. dosing, 5 hours following last active dose) was 2200 ng/mL, the concentration at 19 h ([17]; human, plasma, plasma concentration, Hour 19, mean, mean, p.m. dosing, 19 hours following last active dose) was 600 ng/mL and the concentration at 24 h ([17]; human, plasma, plasma concentration, Hour 38, mean, mean, a.m. dosing, 24 hours following last active dose) was 300 ng/mL. The concentration at 38 h ([17]; human, plasma, plasma concentration, Hour 38, mean, mean, p.m. dosing, 38 hours following last active dose) was 100 ng/mL, the “plasma concentration, Hour 16” value ([17]; individual subjects, a.m. dosing, 2 hours following last active dose, 120 min) was 2420 ng/mL and 3160 ng/mL and 3730 ng/mL and 3000 ng/mL and 3660 ng/mL and 2650 ng/mL and 2840 ng/mL and 2950 ng/mL and 3050 ng/mL and 2940 ng/mL and 4040 ng/mL and 2580 ng/mL and the “plasma concentration, Hour 19” value ([17]; individual subjects, a.m. dosing, 5 hours following last active dose, 300 min) was 1710 ng/mL and 1810 ng/mL and 2370 ng/mL and 2360 ng/mL and 2280 ng/mL and 1780 ng/mL and 2060 ng/mL and 1750 ng/mL and 1720 ng/mL and 2880 ng/mL and 3060 ng/mL and 2390 ng/mL. For the same molecule, the “plasma concentration, Hour 2” value ([17]; individual subjects, a.m. dosing, 12 hours prior to last active dose, 120 min) was 786 ng/mL and 1030 ng/mL and 889 ng/mL and 1460 ng/mL and 1360 ng/mL and 711 ng/mL and 1090 ng/mL and 840 ng/mL and 915 ng/mL and 1200 ng/mL and 1280 ng/mL and 1110 ng/mL and 1500 ng/mL, the “plasma concentration, Hour 0” value ([17]; individual subjects, a.m. dosing, 14 hours prior to last active dose) was 1160 ng/mL and 1060 ng/mL and 1540 ng/mL and 1520 ng/mL and 1350 ng/mL and 901 ng/mL and 1370 ng/mL and 1080 ng/mL and 1180 ng/mL and 1720 ng/mL and 1360 ng/mL and 1800 ng/mL and the “plasma concentration, Hour 38” value ([17]; individual subjects, a.m. dosing, 24 hours following last active dose, 1440 min) was 230 ng/mL and 318 ng/mL and 281 ng/mL and 346 ng/mL and 467 ng/mL and 319 ng/mL and 251 ng/mL and 361 ng/mL and 201 ng/mL and 157 ng/mL and 258 ng/mL and 263 ng/mL and 367 ng/mL. The “plasma concentration, Hour 62” value ([17]; individual subjects, a.m. dosing, 48 hours following last active dose, 2880 min) was 39 ng/mL and 64 ng/mL and 27 ng/mL and 54 ng/mL and 73 ng/mL and 35 ng/mL and 53 ng/mL and 21 ng/mL and 16 ng/mL and 36 ng/mL, the “plasma concentration, Hour 86” value ([17]; individual subjects, a.m. dosing) was 0 ng/mL and the “plasma concentration, Hour 86” value ([17]; individual subjects, a.m. dosing, 4320 min) was 11 ng/mL and 16 ng/mL and 6 ng/mL and 13 ng/mL and 19 ng/mL and 7 ng/mL and 9 ng/mL and 17 ng/mL. For the same molecule, the “plasma concentration, Hour 14” value ([17]; individual subjects, a.m. dosing, immediately prior to last active dose, 840 min) was 271 ng/mL and 368 ng/mL and 243 ng/mL and 385 ng/mL and 479 ng/mL and 297 ng/mL and 210 ng/mL and 350 ng/mL and 204 ng/mL and 279 ng/mL and 317 ng/mL and 283 ng/mL and 419 ng/mL, the Tmax ([17]; individual subjects, a.m. dosing, sample hour scale) was 16 h and 0 h and the Tmax ([17]; individual subjects, p.m. dosing) was 14 h. The “plasma concentration, Hour 0, mean” value ([17]; mean, a.m. dosing, 14 hours prior to last active dose) was 1300 ng/mL, the solubility in alcohol [18] was “practically insoluble in alcohol” and the solubility in water [18] was “slightly soluble in water”.
